Measured values taken from paper PMC8596838, “Xylose‐Configured Cyclophellitols as Selective Inhibitors for Glucocerebrosidase” (Chembiochem, 2021).

System: glucosylsphingosine (GlcSph)
Test: GlcSph levels in inhibitor treated zebrafish larvae (LC-MS)
Format: in vivo, zebrafish (Danio rerio)
Details: treated 103 hours from 8 hpf, n=2
From the text: We further investigated the affinity of 1 and 2 towards β‐D‐glucosidases in living animals using zebrafish (Danio rerio) embryos, which express both GBA and GBA2. Following exposure for 5 days, fish larvae were sacrificed and lysed, and cABPP with ABP 10 was used to detect residual active β‐D‐glucosidase molecules in the lysates and for IC50 determination. […] Aziridine compound 2 is also selective against GBA over GBA2, albeit with a narrower selectivity window (Figure 6A–C). […]
Figure 6 In vivo inhibitory effect of β‐D‐xylo‐configured compounds on β‐glucosidases in zebrafish (Danio rerio) larvae. […] Fluorescently labeled proteins were visualized after SDS‐PAGE, only GBA and GBA2 were assessed in zebrafish larvae model. (B) Apparent IC50 values towards β‐glucosidases (GBA and GBA2) were determined by the fluorescence quantification based on cABPP results. […] (D) GlcSph levels in zebrafish larvae were determined as described in experiment section, n=2 replicates.
Sphingolipid extraction and analysis by mass spectrometry in inhibitor treated zebrafish larvae: Zebrafish embryos at 8 hours post fertilization (hpf) were seeded in 96‐well plates (1 fish embryo/ well, 200 μL egg water/well) and treated with corresponding inhibitors in different concentration for 103 hours at 28.5 °C. […] Lipids were extracted and measured according to methods described previously.[48] […]

## O[C@@H]1[C@@H](O)[C@H](O)C[C@H]2O[C@@H]12 [compound 1, xylo‐cyclophellitol]
  GlcSph levels in zebrafish embryos: increased levels of GlcSph

## O[C@@H]1[C@@H](O)[C@H](O)C[C@H]2N[C@@H]12 [compound 2, β‐D‐xylo‐Cyclophellitol aziridine]
  GlcSph levels in zebrafish embryos: increased levels of GlcSph
